As usually defined, the IC90 is the concentration at which the effect reaches the 90% level.

Where a name gives a salt, the structure may show the parent alone.

The test system of one test is Acinetobacter baumannii ATCC17961. In words: Antimicrobial susceptibility testing: 90% growth inhibitory concentration (IC90) determination. It counts as cell-based. As to conditions: 90% growth inhibitory concentration against Acinetobacter baumannii ATCC17961, Iso-Sensitest broth, OD 600 nm over 16 h; read-out: ATCC 17961 IC90. An outline of the steps:
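Twofold serial dilutions (e.g. 10 to 0.0195 μM final) in Iso-Sensitest broth inoculated at ~5×10^5 CFU/mL, incubated at 35±2° C. OD600 read every minute for 16 h; IC90 is the concentration inhibiting 90% of growth during logarithmic phase.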
On to `Cn1c(-c2cn(-c3ccc(N)cn3)nc2C(F)(F)F)cnc1C(=O)Nc1ccc(C(=O)N2CCN(C(=O)CCC[N+](CCCN)(CCCN)CC(=O)O)CC2)c(Cl)c1` [Example 66, bis(3-aminopropyl)-[4-[4-[4-[[5-[1-(5-amino-2-pyridyl)-3-(trifluoromethyl)pyrazol-4-yl]-1-methyl-imidazole-2-carbonyl]amino]-2-chloro-benzoyl]piperazino]-4-keto-butyl]-(carboxymethyl)ammonium. 1:1 2,2,2-trifluoroacetate], for which the IC90 was found to be 720 nM.

The same test, now with this note: Acinetobacter baumannii, ATCC17961, 16 h, 90% growth inhibitory concentration against Acinetobacter baumannii ATCC17961, Iso-Sensitest broth, OD 600 nm over 16 h; read-out: ATCC 17961 IC90.
As to `Cn1c(-c2cn(-c3ccc(N)cn3)nc2C(F)(F)F)cnc1C(=O)Nc1ccc(C(=O)N2CCN(C(=O)C3CC[N+](CCCC(=O)O)(CC4CNC4)CC3)CC2)c(Cl)c1` (stereo not drawn) [Example 60, 4-[4-[4-[4-[[5-[1-(5-amino-2-pyridyl)-3-(trifluoromethyl)pyrazol-4-yl]-1-methyl-imidazole-2-carbonyl]amino]-2-chloro-benzoyl]piperazine-1-carbonyl]-1-(azetidin-3-ylmethyl)piperidin-1-ium-1-yl]butyric acid. 1:1 2,2,2-trifluoroacetate], the IC90 was found to be 660 nM.

On to `Cn1c(-c2cn(-c3cc4[nH]c(C(=O)N5CCNCC5)cc4cn3)nc2C(F)(F)F)cnc1C(=O)Nc1ccc(C(=O)N2CCN(C(=O)[C@H]3CC[N@+](CC(=O)O)(CC4CNC4)CC3)CC2)c(Cl)c1` [Example 118, cis-2-[1-(azetidin-3-ylmethyl)-4-[4-[2-chloro-4-[[1-methyl-5-[1-[2-(piperazine-1-carbonyl)-1H-pyrrolo[3,2-c]pyridin-6-yl]-3-(trifluoromethyl)pyrazol-4-yl]imidazole-2-carbonyl]amino]benzoyl]piperazine-1-carbonyl]piperidin-1-ium-1-yl]acetic acid. 1:1 2,2,2-trifluoroacetate], for which the 90% effect concentration (IC90) came to 213 nM.

As to `CNc1cc(-n2cc(-c3cnc(C(=O)Nc4ccc(C(=O)N5CCN(C(=O)C6CC[N+](CC(=O)O)(CC7CNC7)CC6)CC5)c(Cl)c4)n3C)c(C(F)(F)F)n2)ccn1` (stereo not drawn) [Example 88, 2-[1-(azetidin-3-ylmethyl)-4-[4-[2-chloro-4-[[1-methyl-5-[1-[2-(methylamino)-4-pyridyl]-3-(trifluoromethyl)pyrazol-4-yl]imidazole-2-carbonyl]amino]benzoyl]piperazine-1-carbonyl]piperidin-1-ium-1-yl]acetic acid. 1:1 2,2,2-trifluoroacetate], the concentration for an effect of 90% (IC90) was 1410 nM.

On to `COCCNc1ccc(-n2cc(-c3cnc(C(=O)Nc4ccc(C(=O)N5CCN(C(=O)[C@H]6CC[N@+](CC(=O)O)(CC7CNC7)CC6)CC5)c(Cl)c4)n3C)c(C(F)(F)F)n2)c(F)c1` [Example 185, cis-2-[1-(azetidin-3-ylmethyl)-4-[4-[2-chloro-4-[[5-[1-[2-fluoro-4-(2-methoxyethylamino)phenyl]-3-(trifluoromethyl)pyrazol-4-yl]-1-methyl-imidazole-2-carbonyl]amino]benzoyl]piperazine-1-carbonyl]piperidin-1-ium-1-yl]acetic acid. 1:1 2,2,2-trifluoroacetate], for which the IC90 is 196 nM.

For the molecule `CN(C)CC[N@+]1(CC(=O)O)CC[C@@H](C(=O)N2CCN(C(=O)c3ccc(NC(=O)c4ncc(-c5cn(-c6ccc(N)cc6F)nc5C(F)(F)F)n4C)cc3Cl)CC2)CC1` [Example 188, cis-2-[4-[4-[4-[[5-[1-(4-amino-2-fluoro-phenyl)-3-(trifluoromethyl)pyrazol-4-yl]-1-methyl-imidazole-2-carbonyl]amino]-2-chloro-benzoyl]piperazine-1-carbonyl]-1-[2-(dimethylamino)ethyl]piperidin-1-ium-1-yl]acetic acid;2,2,2-trifluoroacetate], the IC90 worked out at 540 nM.

For the molecule `Cn1c(-c2cn(-c3ccc4c(ccn4C)n3)nc2C(F)(F)F)cnc1C(=O)Nc1ccc(C(=O)N2CCN(C(=O)[C@H]3CC[N@+](CC(=O)O)(CC4CNC4)CC3)CC2)c(Cl)c1` [Example 39, cis-2-[1-(azetidin-3-ylmethyl)-4-[4-[2-chloro-4-[[1-methyl-5-[1-(1-methylpyrrolo[3,2-b]pyridin-5-yl)-3-(trifluoromethyl)pyrazol-4-yl]imidazole-2-carbonyl]amino]benzoyl]piperazine-1-carbonyl]piperidin-1-ium-1-yl]acetic acid. 1:1 2,2,2-trifluoroacetate], the concentration for an effect of 90% (IC90) is 430 nM.

For the molecule `Cn1c(-c2cn(-c3ccc(CN)cn3)nc2C(F)(F)F)cnc1C(=O)Nc1ccc(C(=O)N2CCN(C(=O)C3CC[N+](CC(=O)O)(CC4CNC4)CC3)CC2)c(Cl)c1` (stereo not drawn) [Example 21, 2-[4-[4-[4-[[5-[1-[5-(Aminomethyl)-2-pyridyl]-3-(trifluoromethyl)pyrazol-4-yl]-1-methyl-imidazole-2-carbonyl]amino]-2-chloro-benzoyl]piperazine-1-carbonyl]-1-(azetidin-3-ylmethyl)piperidin-1-ium-1-yl]acetic Acid.1:1 formic Acid.1:1 formate], the IC90 was 320 nM.

Take `Cn1c(-c2cn(-c3ccc(N4CC[C@H](N)C4)cn3)nc2C(F)(F)F)cnc1C(=O)Nc1ccc(C(=O)N2CCN(C(=O)[C@H]3CC[N@+](CC(=O)O)(CC4CNC4)CC3)CC2)c(Cl)c1` [Example 202, cis-2-[4-[4-[4-[[5-[1-[5-[(3S)-3-aminopyrrolidin-1-yl]-2-pyridyl]-3-(trifluoromethyl)pyrazol-4-yl]-1-methyl-imidazole-2-carbonyl]amino]-2-chloro-benzoyl]piperazine-1-carbonyl]-1-(azetidin-3-ylmethyl)piperidin-1-ium-1-yl]acetic acid;formate]: the 90% effect concentration (IC90) is 231 nM.

For the molecule `CNC(=O)n1ccc2nc(-n3cc(-c4cnc(C(=O)Nc5ccc(C(=O)N6CCN(C(=O)[C@H]7CC[N@+](CC(=O)O)(CC8CNC8)CC7)CC6)c(Cl)c5)n4C)c(C(F)(F)F)n3)ccc21` [Example 143, cis-2-[1-(azetidin-3-ylmethyl)-4-[4-[2-chloro-4-[[1-methyl-5-[1-[1-(methylcarbamoyl)pyrrolo[3,2-b]pyridin-5-yl]-3-(trifluoromethyl)pyrazol-4-yl]imidazole-2-carbonyl]amino]benzoyl]piperazine-1-carbonyl]piperidin-1-ium-1-yl]acetic acid. 1:1 formate], the 90% effect concentration (IC90) was 682 nM.

Take `Cn1c(-c2cn(-c3ccc(N)cn3)nc2C(F)(F)F)cnc1C(=O)Nc1ccc(C(=O)N2CCN(C(=O)[C@H]3CC[N@+](CC(=O)O)(CC4CNC4)CC3)CC2)c(Cl)c1` [Example 34, cis-2-[4-[4-[4-[[5-[1-(5-amino-2-pyridyl)-3-(trifluoromethyl)pyrazol-4-yl]-1-methyl-imidazole-2-carbonyl]amino]-2-chloro-benzoyl]piperazine-1-carbonyl]-1-(azetidin-3-ylmethyl)piperidin-1-ium-1-yl]acetic acid. 1:1 2,2,2-trifluoroacetic acid. 1:1 2,2,2-trifluoroacetate]: the concentration for an effect of 90% (IC90) is 400 nM.

Regarding `Cn1c(-c2cn(-c3ccc4[nH]c(CO)cc4n3)nc2C(F)(F)F)cnc1C(=O)Nc1ccc(C(=O)N2CCN(C(=O)N3CC[N+](CC(=O)O)(CC4CNC4)CC3)CC2)c(Cl)c1` [Example 144, 2-[1-(azetidin-3-ylmethyl)-4-[4-[2-chloro-4-[[1-methyl-5-[1-(2-methylol-1H-pyrrolo[3,2-b]pyridin-5-yl)-3-(trifluoromethyl)pyrazol-4-yl]imidazole-2-carbonyl]amino]benzoyl]piperazine-1-carbonyl]piperazin-1-ium-1-yl]acetic acid. 1:1 2,2,2-trifluoroacetate], the IC90 stood at 269 nM.

Source of the values: US20250179066A1, “ZWITTERIONIC ANTIBACTERIAL COMPOUNDS” (Hoffmann-La Roche Inc., priority 2022, published 2025).
